In patent US12180195B1, “6-(6-bromo-2-oxo-2H-chromen-3-yl)-4-(2,4-dichlorophenyl)-2-alkoxynicotinonitrile as an antimicrobial compound” (KING FAISAL UNIVERSITY, priority 2023, dated 2024):

Legend:
Format in all cases: cell-based
Bacillus Cereus = experiment: Agar plate disc-diffusion, antibacterial inhibition zone; details: nutrient agar, 37° C., 48 hours, DMSO zone subtracted
Procedure: (§1) The agar plate disc-diffusion method was applied. Sterilized filter papers (6 mm in diameter) were wetted with 10 μL of a solution of compounds 6-(6-bromo-2-oxo-2H-chromen-3-yl)-4-(2,4-dichlorophenyl)-2-ethoxynicotinonitrile 1 or 6-(6-bromo-2-oxo-2H-chromen-3-yl)-4-(2,4-dichlorophenyl)-2-methoxynicotinonitrile 2 to be tested, containing […], and the discs were allowed to air dry. The discs were then placed onto the surface of agar plates (nutrient agar for bacteria and Sabouraud's dextrose agar for fungi) seeded with the test organism. Each plate contained 15 mL of the agar medium, previously seeded with 0.2 mL of the broth culture of each organism pregrown for 18 hours. The plates were incubated at 37° C. for 48 hours, and 72 hours for fungi. The inhibition zones were measured in mm. Discs impregnated with DMSO were used as a control, and its inhibition zone was subtracted from the tested compound actual inhibition zone.
(§2) The results of the antimicrobial testing can be observed in Tables 1 and 2, below, using ciprofloxacin as a reference.

Escherichia coli = experiment: as above; details: nutrient agar, 37° C., 48 hours, DMSO zone subtracted
Procedure: as §1, §2

Pseudomonas aeruginosa = experiment: as above; details: nutrient agar, 37° C., 48 hours, DMSO zone subtracted
Procedure: as §1, §2

Staphylococcus aureus = experiment: as above; details: nutrient agar, 37° C., 48 hours, DMSO zone subtracted
Procedure: as §1, §2

Aspergillus flavus = experiment: Agar plate disc-diffusion, antifungal inhibition zone; details: Sabouraud's dextrose agar, 72 hours, DMSO zone subtracted
Procedure: as §1, §2

[1] = tested on: Chrysosporium keratinophilum; experiment: as above; details: Sabouraud's dextrose agar, 72 hours, DMSO zone subtracted
Procedure: as §1, §2

different microbes = experiment: Antimicrobial testing, overall statement in words; details: summary of Tables 1 and 2, bacteria and fungi
Procedure: as §1
Their antibacterial activity was screened against gram positive bacteria namely Bacillus cereus and Staphylococcus aureus and gram-negative bacterial strains namely Pseudomonas aeruginosa and Escherichia coli, while their antifungal activity was screened against Aspergillus flavus and Chrysosporium keratinophilum.

[2] = A = concentration of comp. = 10,000 μL
[3] = B = concentration of comp. = 30,000 μL
[4] = C = concentration of comp. = 50,000 μL

Row | Compound | inhibition zone (Bacillus Cereus; [2]) [mm] | inhibition zone (Bacillus Cereus; [3]) [mm] | inhibition zone (Bacillus Cereus; [4]) [mm] | inhibition zone (Escherichia coli; [2]) [mm] | inhibition zone (Escherichia coli; [3]) [mm] | inhibition zone (Escherichia coli; [4]) [mm] | inhibition zone (Pseudomonas aeruginosa; [2]) [mm] | inhibition zone (Pseudomonas aeruginosa; [3]) [mm] | inhibition zone (Pseudomonas aeruginosa; [4]) [mm] | inhibition zone (Staphylococcus aureus; [2]) [mm] | inhibition zone (Staphylococcus aureus; [3]) [mm] | inhibition zone (Staphylococcus aureus; [4]) [mm] | inhibition zone (Aspergillus flavus; [2]) [mm] | inhibition zone (Aspergillus flavus; [3]) [mm] | inhibition zone (Aspergillus flavus; [4]) [mm] | inhibition zone [1, 2] [mm] | inhibition zone [1, 3] [mm] | inhibition zone [1, 4] [mm] | antimicrobial activity (in words) (different microbes)
1 | O=C(O)c1cn(C2CC2)c2cc(N3CCNCC3)c(F)cc2c1=O [Cip., ciprofloxacin, reference compound] | 29 | 30 | 42 | 30 | 39 | 60 | 29 | 30 | 53 | 43 | 44 | 53 | 29 | 30 | 42 | 29 | 30 | 53 | –
2 | CCOc1nc(-c2cc3cc(Br)ccc3oc2=O)cc(-c2ccc(Cl)cc2Cl)c1C#N [Compound 1, 6-(6-bromo-2-oxo-2H-chromen-3-yl)-4-(2,4-dichlorophenyl)-2-ethoxynicotinonitrile] | 26 | 27 | 38 | 30 | 38 | 54 | 24 | 31 | 42 | 13 | 20 | 27 | 26 | 28 | 39 | 22 | 33 | 39 | high antimicrobial activities
3 | COc1nc(-c2cc3cc(Br)ccc3oc2=O)cc(-c2ccc(Cl)cc2Cl)c1C#N [Compound 2, 6-(6-bromo-2-oxo-2H-chromen-3-yl)-4-(2,4-dichlorophenyl)-2-methoxynicotinonitrile] | 27 | 28 | 40 | 28 | 37 | 49 | 24 | 27 | 42 | 14 | 21 | 25 | 17 | 21 | 29 | 28 | 29 | 46 | high antimicrobial activities
